Measurements reported in patent US6455540B1, “Methods of use of quinolone compounds against anaerobic pathogenic bacteria” (priority 1999, dated 2002).

Legend:
Assay in all cases: Agar dilution MIC
[1] = system: Anaerobiospirillum succiniciproducens; format: cell-based; settings: 3 isolates
[2] = system: Peptostreptococcus asaccharolyticus; format: cell-based; settings: 11 isolates
[3] = system: Fusobacterium spp group 1; format: cell-based; settings: 19 isolates
Prevotella bivia = format: cell-based; settings: 21 isolates
[4] = system: Anaerobiospirillum thomasii; format: cell-based; settings: 13 isolates
Clostridium ramosum = format: cell-based; settings: 10 isolates
[5] = system: Prevotella heparinolytica; format: cell-based; settings: 16 isolates
Prevotella intermedia = format: cell-based; settings: 11 isolates
Porphyromonas macaccae = format: cell-based; settings: 13 isolates
Bilophila wadsworthia = format: cell-based; settings: 16 isolates; agar supplemented with pyruvate
[6] = system: Peptostreptococcus magnus; format: cell-based; settings: 13 isolates
Fusobacterium varium = format: cell-based; settings: 17 isolates
Clostridium inocuum = format: cell-based, Clostridium innocuum; settings: 11 isolates
Porphyromonas gingivalis = format: cell-based; settings: 13 isolates
[7] = system: Prevotella melaninogenica; format: cell-based; settings: 12 isolates
[8] = system: Prevotella buccae-oris group; format: cell-based; settings: 22 isolates
[9] = system: Prevotella denticola/loeschii group; format: cell-based; settings: 6 isolates
[10] = system: Fusobacterium spp. group 2; format: cell-based, Fusobacterium mortiferum, necrogenes, ulcerans; settings: 12 isolates
Bacteroides tectum = format: cell-based; settings: 22 isolates
[11] = system: Peptostreptococcus micros; format: cell-based; settings: 12 isolates
[12] = system: Actinomyces odontolyticus; format: cell-based; settings: 10 isolates
Clostridium dfficile = format: cell-based, Clostridium difficile; settings: 14 isolates
[13] = system: Peptostreptococcus prevotii; format: cell-based; settings: 9 isolates
Fusobacterium russii = format: cell-based
Veillonella spp. = format: cell-based; settings: 24 isolates
[14] = system: Clostridium clostridioforme; format: cell-based; settings: 11 isolates
Actinomyces israelii = format: cell-based; settings: 6 isolates
Bacteroides gracilis = format: cell-based, Bacteroides gracilis (Campylobacter gracilis); settings: 11 isolates
Bacteroides ureolyticus = format: cell-based; settings: 17 isolates
Porphyromonas canoris = format: cell-based; settings: 10 isolates
[15] = system: Porphyromonas asaccharolyticus; format: cell-based, Porphyromonas asaccharolytica; settings: 11 isolates

CC1(C)S[C@@H]2[C@H](NC(=O)Cc3ccccc3)C(=O)N2[C@H]1C(=O)O [Penicillin G]
Minimal Inhibitory Concentration 50% (MIC50) [1]: 0.5 µg/mL | Minimal Inhibitory Concentration Range [1]: 0.5 to 1 µg/mL | Minimal Inhibitory Concentration 50% (MIC50) [2]: 0.03 µg/mL | Minimal Inhibitory Concentration 90% (MIC90) [2]: 0.25 µg/mL | Minimal Inhibitory Concentration 90% (MIC90) [3]: 2 µg/mL | Minimal Inhibitory Concentration 50% (MIC50) (Prevotella bivia): 16 µg/mL | Minimal Inhibitory Concentration 90% (MIC90) (Prevotella bivia): 32 µg/mL | Minimal Inhibitory Concentration Range (Prevotella bivia): 0.25 to 32 µg/mL | Minimal Inhibitory Concentration 50% (MIC50) [4]: 0.06 µg/mL | Minimal Inhibitory Concentration 90% (MIC90) [4]: 0.125 µg/mL | Minimal Inhibitory Concentration Range [4]: 0.06 to 0.125 µg/mL | Minimal Inhibitory Concentration 50% (MIC50) (Clostridium ramosum): 0.06 µg/mL | Minimal Inhibitory Concentration 90% (MIC90) (Clostridium ramosum): 1 µg/mL | Minimal Inhibitory Concentration Range (Clostridium ramosum): 0.06 to 1 µg/mL | Minimal Inhibitory Concentration 50% (MIC50) [5]: 0.06 µg/mL | Minimal Inhibitory Concentration 90% (MIC90) [5]: 0.125 µg/mL | Minimal Inhibitory Concentration Range [5]: 0.06 to 0.25 µg/mL | Minimal Inhibitory Concentration 50% (MIC50) (Prevotella intermedia): 0.03 µg/mL | Minimal Inhibitory Concentration 90% (MIC90) (Prevotella intermedia): 4 µg/mL | Minimal Inhibitory Concentration 50% (MIC50) (Porphyromonas macaccae): 0.5 µg/mL | Minimal Inhibitory Concentration 90% (MIC90) (Porphyromonas macaccae): 0.5 µg/mL | Minimal Inhibitory Concentration 50% (MIC50) (Bilophila wadsworthia): 4 µg/mL | Minimal Inhibitory Concentration 90% (MIC90) (Bilophila wadsworthia): 8 µg/mL | Minimal Inhibitory Concentration Range (Bilophila wadsworthia): 2 to 16 µg/mL | Minimal Inhibitory Concentration 50% (MIC50) [6]: 0.03 µg/mL | Minimal Inhibitory Concentration 90% (MIC90) [6]: 0.25 µg/mL | Minimal Inhibitory Concentration 50% (MIC50) (Fusobacterium varium): 0.5 µg/mL | Minimal Inhibitory Concentration 90% (MIC90) (Fusobacterium varium): 8 µg/mL | Minimal Inhibitory Concentration 50% (MIC50) (Clostridium inocuum): 0.5 µg/mL | Minimal Inhibitory Concentration 90% (MIC90) (Clostridium inocuum): 0.5 µg/mL | Minimal Inhibitory Concentration 90% (MIC90) (Porphyromonas gingivalis): 0.03 µg/mL | Minimal Inhibitory Concentration 50% (MIC50) [7]: 0.25 µg/mL | Minimal Inhibitory Concentration 90% (MIC90) [7]: 2 µg/mL | Minimal Inhibitory Concentration 50% (MIC50) [8]: 8 µg/mL | Minimal Inhibitory Concentration 90% (MIC90) [8]: >32 µg/mL | Minimal Inhibitory Concentration 50% (MIC50) [9]: 4 µg/mL | Minimal Inhibitory Concentration 50% (MIC50) [10]: 0.25 µg/mL | Minimal Inhibitory Concentration 90% (MIC90) [10]: 0.5 µg/mL | Minimal Inhibitory Concentration 50% (MIC50) (Bacteroides tectum): 0.03 µg/mL | Minimal Inhibitory Concentration 90% (MIC90) (Bacteroides tectum): 16 µg/mL | Minimal Inhibitory Concentration 90% (MIC90) [11]: 0.03 µg/mL | Minimal Inhibitory Concentration 50% (MIC50) [12]: 0.125 µg/mL | Minimal Inhibitory Concentration 90% (MIC90) [12]: .0125 µg/mL | Minimal Inhibitory Concentration Range [12]: 0.125 to 0.25 µg/mL | Minimal Inhibitory Concentration 50% (MIC50) (Clostridium dfficile): 2 µg/mL | Minimal Inhibitory Concentration 90% (MIC90) (Clostridium dfficile): 4 µg/mL | Minimal Inhibitory Concentration Range (Clostridium dfficile): 1 to 4 µg/mL | Minimal Inhibitory Concentration 50% (MIC50) [13]: 0.03 µg/mL | Minimal Inhibitory Concentration Range [13]: 0.03 to 0.06 µg/mL | Minimal Inhibitory Concentration 50% (MIC50) (Fusobacterium russii): 0.03 µg/mL | Minimal Inhibitory Concentration 90% (MIC90) (Fusobacterium russii): 0.06 µg/mL | Minimal Inhibitory Concentration 50% (MIC50) (Veillonella spp.): 1 µg/mL | Minimal Inhibitory Concentration 90% (MIC90) (Veillonella spp.): 4 µg/mL | Minimal Inhibitory Concentration 50% (MIC50) [14]: 1 µg/mL | Minimal Inhibitory Concentration 90% (MIC90) [14]: 16 µg/mL | Minimal Inhibitory Concentration 50% (MIC50) (Actinomyces israelii): 0.03 µg/mL | Minimal Inhibitory Concentration 50% (MIC50) (Bacteroides gracilis): 0.125 µg/mL | Minimal Inhibitory Concentration 90% (MIC90) (Bacteroides gracilis): 4 µg/mL | Minimal Inhibitory Concentration 90% (MIC90) (Bacteroides ureolyticus): 0.25 µg/mL

Amoxicillin clavulanate
Minimal Inhibitory Concentration 50% (MIC50) [1]: 0.25 µg/mL | Minimal Inhibitory Concentration Range [1]: 0.25 to 0.5 µg/mL | Minimal Inhibitory Concentration 50% (MIC50) [2]: 0.03 µg/mL | Minimal Inhibitory Concentration Range [2]: 0.03 to 1 µg/mL | Minimal Inhibitory Concentration 50% (MIC50) [3]: 0.06 µg/mL | Minimal Inhibitory Concentration 50% (MIC50) (Prevotella bivia): 0.5 µg/mL | Minimal Inhibitory Concentration 90% (MIC90) (Prevotella bivia): 4 µg/mL | Minimal Inhibitory Concentration Range (Prevotella bivia): 0.06 to 4 µg/mL | Minimal Inhibitory Concentration 90% (MIC90) [4]: 0.25 µg/mL | Minimal Inhibitory Concentration Range [4]: 0.125 to 0.25 µg/mL | Minimal Inhibitory Concentration 50% (MIC50) (Clostridium ramosum): 0.06 µg/mL | Minimal Inhibitory Concentration 90% (MIC90) (Clostridium ramosum): 0.25 µg/mL | Minimal Inhibitory Concentration Range (Clostridium ramosum): 0.06 to 0.25 µg/mL | Minimal Inhibitory Concentration 90% (MIC90) [5]: 0.25 µg/mL | Minimal Inhibitory Concentration Range [5]: 0.06 to 0.25 µg/mL | Minimal Inhibitory Concentration 50% (MIC50) (Prevotella intermedia): 0.03 µg/mL | Minimal Inhibitory Concentration Range (Prevotella intermedia): 0.03 to 0.5 µg/mL | Minimal Inhibitory Concentration 50% (MIC50) (Bilophila wadsworthia): 2 µg/mL | Minimal Inhibitory Concentration 90% (MIC90) (Bilophila wadsworthia): 4 µg/mL | Minimal Inhibitory Concentration Range (Bilophila wadsworthia): 1 to 4 µg/mL | Minimal Inhibitory Concentration 50% (MIC50) [6]: 0.03 µg/mL | Minimal Inhibitory Concentration Range [6]: 0.03 to 1 µg/mL | Minimal Inhibitory Concentration 90% (MIC90) (Porphyromonas canoris): 0.03 µg/mL | Minimal Inhibitory Concentration 50% (MIC50) (Fusobacterium varium): 2 µg/mL | Minimal Inhibitory Concentration 90% (MIC90) (Fusobacterium varium): 4 µg/mL | Minimal Inhibitory Concentration Range (Fusobacterium varium): 0.125 to 4 µg/mL | Minimal Inhibitory Concentration 50% (MIC50) (Clostridium inocuum): 0.5 µg/mL | Minimal Inhibitory Concentration 90% (MIC90) (Clostridium inocuum): 0.5 µg/mL | Minimal Inhibitory Concentration Range (Clostridium inocuum): 0.5 to 2 µg/mL | Minimal Inhibitory Concentration 90% (MIC90) (Porphyromonas gingivalis): 0.06 µg/mL | Minimal Inhibitory Concentration 50% (MIC50) [7]: 2 µg/mL | Minimal Inhibitory Concentration 90% (MIC90) [7]: 4 µg/mL | Minimal Inhibitory Concentration Range [7]: 0.03 to 16 µg/mL | Minimal Inhibitory Concentration 90% (MIC90) [15]: 0.03 µg/mL | Minimal Inhibitory Concentration 50% (MIC50) [8]: 0.25 µg/mL | Minimal Inhibitory Concentration 90% (MIC90) [8]: 1 µg/mL | Minimal Inhibitory Concentration Range [8]: 0.125 to 2 µg/mL | Minimal Inhibitory Concentration 50% (MIC50) [9]: 0.06 µg/mL | Minimal Inhibitory Concentration Range [9]: 0.03 to 0.5 µg/mL | Minimal Inhibitory Concentration 50% (MIC50) [10]: 1 µg/mL | Minimal Inhibitory Concentration 90% (MIC90) [10]: 2 µg/mL | Minimal Inhibitory Concentration 50% (MIC50) (Bacteroides tectum): 0.06 µg/mL | Minimal Inhibitory Concentration 90% (MIC90) (Bacteroides tectum): 0.5 µg/mL | Minimal Inhibitory Concentration Range (Bacteroides tectum): 0.03 to 0.5 µg/mL | Minimal Inhibitory Concentration 50% (MIC50) [11]: 0.03 µg/mL | Minimal Inhibitory Concentration Range [11]: 0.03 to 0.125 µg/mL | Minimal Inhibitory Concentration 90% (MIC90) [12]: 0.25 µg/mL | Minimal Inhibitory Concentration Range [12]: 0.06 to 0.125 µg/mL | Minimal Inhibitory Concentration 50% (MIC50) (Clostridium dfficile): 1 µg/mL | Minimal Inhibitory Concentration 90% (MIC90) (Clostridium dfficile): 1 µg/mL | Minimal Inhibitory Concentration Range (Clostridium dfficile): 0.5 to 1 µg/mL | Minimal Inhibitory Concentration 50% (MIC50) [13]: 0.03 µg/mL | Minimal Inhibitory Concentration 50% (MIC50) (Fusobacterium russii): 0.06 µg/mL | Minimal Inhibitory Concentration 50% (MIC50) (Veillonella spp.): 0.5 µg/mL | Minimal Inhibitory Concentration 90% (MIC90) (Veillonella spp.): 2 µg/mL | Minimal Inhibitory Concentration 50% (MIC50) [14]: 0.5 µg/mL | Minimal Inhibitory Concentration 90% (MIC90) [14]: 1 µg/mL | Minimal Inhibitory Concentration Range [14]: 0.5 to 8 µg/mL | Minimal Inhibitory Concentration 50% (MIC50) (Actinomyces israelii): 0.03 µg/mL | Minimal Inhibitory Concentration Range (Actinomyces israelii): 0.03 to 1 µg/mL | Minimal Inhibitory Concentration 50% (MIC50) (Bacteroides gracilis): 0.5 µg/mL | Minimal Inhibitory Concentration 90% (MIC90) (Bacteroides gracilis): 2 µg/mL
